The results in this text go back to PubChem BioAssay AID602166 (The Scripps Research Institute Molecular Screening Center, 2012).

Calls of active or inactive are those of the source. How the calls were made is not given here.

The target in this assay is Nuclear receptor coactivator 3 (Homo sapiens) (UniProt Q9Y6Q9). In words: NCOA3 reporter inhibition potency – cell-based, luminescence, dose response (AID 602166).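 Further: potency for reduction of SRC3 reporter signal so compounds are inhibitors.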 As to conditions: SRC3 luciferase reporter cell assay. A general note: A reporter such as luciferase makes a cellular process visible.
Chain of Nuclear receptor coactivator 3 (Homo sapiens) (Q9Y6Q9 whole entry, looked up): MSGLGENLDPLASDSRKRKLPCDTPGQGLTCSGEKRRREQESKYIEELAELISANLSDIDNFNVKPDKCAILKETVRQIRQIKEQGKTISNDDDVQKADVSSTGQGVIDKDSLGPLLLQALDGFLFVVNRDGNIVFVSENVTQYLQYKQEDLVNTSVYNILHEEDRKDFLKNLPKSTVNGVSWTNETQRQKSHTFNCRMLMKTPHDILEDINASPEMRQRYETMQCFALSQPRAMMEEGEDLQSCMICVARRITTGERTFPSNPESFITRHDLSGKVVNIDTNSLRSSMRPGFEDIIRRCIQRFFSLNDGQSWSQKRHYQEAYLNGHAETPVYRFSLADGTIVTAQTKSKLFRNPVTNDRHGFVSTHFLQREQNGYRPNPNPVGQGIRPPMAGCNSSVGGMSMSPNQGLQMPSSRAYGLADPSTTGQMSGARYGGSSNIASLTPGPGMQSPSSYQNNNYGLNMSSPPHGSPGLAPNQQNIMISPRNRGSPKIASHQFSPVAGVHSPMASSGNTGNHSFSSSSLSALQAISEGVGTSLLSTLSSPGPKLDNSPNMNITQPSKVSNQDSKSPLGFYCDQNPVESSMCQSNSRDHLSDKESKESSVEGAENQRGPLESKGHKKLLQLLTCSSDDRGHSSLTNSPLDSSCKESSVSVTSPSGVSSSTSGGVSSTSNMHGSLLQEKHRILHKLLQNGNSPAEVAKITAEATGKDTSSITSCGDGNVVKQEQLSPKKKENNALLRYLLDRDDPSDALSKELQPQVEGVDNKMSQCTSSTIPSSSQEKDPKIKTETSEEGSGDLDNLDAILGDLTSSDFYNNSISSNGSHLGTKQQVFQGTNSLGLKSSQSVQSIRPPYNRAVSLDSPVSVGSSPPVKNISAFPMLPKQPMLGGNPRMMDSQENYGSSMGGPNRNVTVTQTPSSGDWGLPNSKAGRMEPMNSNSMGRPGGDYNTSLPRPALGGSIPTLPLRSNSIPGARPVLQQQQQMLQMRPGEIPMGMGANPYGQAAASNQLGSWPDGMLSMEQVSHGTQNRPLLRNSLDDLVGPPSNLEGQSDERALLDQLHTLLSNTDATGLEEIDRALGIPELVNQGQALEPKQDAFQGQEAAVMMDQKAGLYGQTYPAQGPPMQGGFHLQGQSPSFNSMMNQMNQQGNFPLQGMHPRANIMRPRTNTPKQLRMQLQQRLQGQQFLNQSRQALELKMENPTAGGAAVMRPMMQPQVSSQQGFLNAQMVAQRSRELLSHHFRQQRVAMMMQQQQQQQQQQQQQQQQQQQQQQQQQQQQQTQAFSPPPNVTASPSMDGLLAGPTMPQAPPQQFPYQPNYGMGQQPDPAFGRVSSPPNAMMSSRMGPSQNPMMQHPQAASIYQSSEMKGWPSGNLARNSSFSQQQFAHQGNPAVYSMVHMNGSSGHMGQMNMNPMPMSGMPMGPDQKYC
By IC50 is commonly meant the concentration at which inhibition is half-maximal. `Cc1cccc(Oc2sc(C(=O)c3ccccc3)c(N)c2C#N)c1`: the IC50 was 8.09 µM.
The value for `CCn1c2ccccc2c2cnc(N=CN(C)C)c(C#N)c21` was 4.94 µM; that for `C(=N\Nc1nc2ccccc2[nH]1)/c1cccc2cccnc12` was 9.18 µM; that for `Brc1ccc2ncc3ccccc3c2c1` was 8.02 µM.
Take `O=C(N/N=C\c1ccc([N+](=O)[O-])o1)C1COc2ccccc2O1` (configuration not stated): the IC50 was > 35.9 µM (inactive).
The value for `O=C(CCl)NC(Cc1ccccc1)c1ccccc1` (configuration not stated) was 5.58 µM; that for `O=C(CCl)N(c1ccccc1)C1CCS(=O)(=O)C1` (configuration not stated) was 6.92 µM; that for `COc1ccc2[nH]c(=O)c(CN(CCN3CCCC3)C(=O)Nc3ccccc3Cl)cc2c1` was “inactive”.
Regarding `COc1ccc(-c2nsc3c(N4CCCCC4)ncnc23)cc1`, the IC50 is > 35.9 µM (inactive).
The value for `CN(C)c1ccc(/C=C/c2ccc3ccccc3n2)cc1` was 5.65 µM.
In the case of `CCCCN1C=CC(=C2C(=O)c3ccccc3C2=O)C=C1`, the IC50 was 4.47 µM.
For `O=c1[nH]c(O)c(N=Nc2ccc3c(c2)OCCO3)c(=O)[nH]1` the value was > 35.9 µM (inactive).
In the case of `Cc1ccc(C2=NN(C(=O)CCl)C(c3cccs3)C2)o1` (configuration not stated), the IC50 entry is “inactive”.
On to `CC(=O)OCCN1c2ccccc2Sc2cnccc21`, for which the IC50 was 5.67 µM.
Turning to `Cc1cccc2sc(NNC(=O)c3ccc(S(=O)(=O)N4CC(C)CC(C)C4)cc3)nc12` (configuration not stated), the IC50 was 5.91 µM.
For `C(=Cc1cnc2ccccc2n1)c1ccc2c(c1)OCO2` the value was “inactive”.
For `CCOc1ccc(CC(=O)Nc2ccc(NC(=O)c3ccco3)cc2)cc1OCC`, the IC50 was 4.24 µM.
Turning to `O=C(COC(=O)c1ccc[nH]c1=O)Nc1ccc(N2CCCCC2)cc1`, the IC50 is 2.9 µM.
The value for `COc1cccc2c1C(=N)c1c(O)c3c(c(O)c1C2=O)CC(O)(C(C)=O)CC3OC1CC(N)C(O)C(C)O1` (configuration not stated) was > 35.9 µM (inactive); that for `Cc1ccc(C(=O)O/N=C(\N)c2ccccn2)c(Cl)c1` was > 35.9 µM (inactive); that for `COc1ccc(/C=C2/SC(=S)N(CCC(=O)O)C2=O)cc1` was > 35.9 µM (inactive).
Turning to `Oc1ccc(C=NNc2ccccn2)c(O)c1`, the IC50 entry was “inactive”.
The value for `C=C1C(=O)[C@]23C[C@H]1CCC2[C@@]1(C)C(C[C@@H]3O)[C@](C)(C(=O)OC)CC[C@@H]1O` (some centres not stated) was 8.33 µM; that for `O=S(=O)(/C(=C\c1ccc(C(F)(F)F)cc1)c1nc2ccccc2[nH]1)c1ccccc1` was > 12 µM (inactive).
For `O=C(COc1ccc(Cl)cc1)Nc1ccc(C(=O)NCc2cccnc2)cc1` the value was “inactive”.
The value for `O=c1[nH]c2ccccc2n1C1CCN(C(c2ccccc2)c2nnnn2-c2ccc3c(c2)OCCO3)CC1` (configuration not stated) was “inactive”; that for `Cc1ccc2occ(/C=N/NC(=O)[C@@H](N)Cc3ccccc3)c(=O)c2c1` was 9.86 µM; that for `c1cc2[nH]snc2c2nc(C3CC3)nc12` was 1.62 µM.
On to `COc1cc(/C=C2\CC(C(C)(C)C)C/C(=C\c3cc(OC)c(OC)c(OC)c3)C2=O)cc(OC)c1OC` (configuration not stated), for which the IC50 was > 35.9 µM (inactive).
As to `CNc1ncnc(Sc2nc(N)nc3nc[nH]c23)c1[N+](=O)[O-]`, the IC50 was 4.17 µM.
For `COc1ccc(/C=C2\CN(Cc3ccccc3)C/C(=C\c3ccc(OC)c(O)c3)C2=O)cc1O` the value was > 35.9 µM (inactive); for `CNC(=O)c1cccn(Cc2ccc(C(F)(F)F)cc2)c1=O`, > 35.8 µM (inactive); for `CCc1ccc(-c2nc(CSCC(=O)NCc3ccco3)c(C)o2)cc1`, > 35.9 µM (inactive).
The value for `C#CC(=O)N(c1cc(OC)ccc1OC)C(C(=O)NC1CCCC1)c1cccs1` (configuration not stated) was > 35.9 µM (inactive).
Take `CC(C)(C)c1cc(C(=O)N/N=C/c2ccc(O)cc2)n(-c2ccccc2)n1`: the IC50 was > 35.9 µM (inactive).
Take `CC(C)(C)n1ncc2c(=O)n(CC(=O)OCc3ccccc3)cnc21`: the IC50 was > 35.9 µM (inactive).
For `COc1cccc(/C=N/Nc2ccc([N+](=O)[O-])cn2)c1O`, the IC50 entry was “inactive”.
The value for `CCn1ccnc1CN(C)Cc1cn[nH]c1-c1ccc(OC)c(F)c1` was 4.91 µM; that for `CC(=O)c1cccc(NC(=O)Nc2ccc3c(c2)N(C)C(=O)CS3)c1` was > 12 µM (inactive); that for `CCOC(=O)C(=CNc1ccc(NC2=NCC(C)S2)cc1)C(=O)OCC` (configuration not stated) was 3.32 µM.
Regarding `O=C(CCl)Nc1cccc(-c2cnc3ccccc3n2)c1`, the IC50 entry is “inactive”.
The value for `Cc1ccc2nc(C(F)(F)F)c(C#N)c(N)c2c1` was “inactive”; that for `CCOc1cc(/C=C2\CCC/C(=C\c3cc(Cl)c(O)c(OCC)c3)C2=O)cc(Cl)c1O` was > 35.8 µM (inactive); that for `CN1C(=O)C2(C(C#N)=C(N)N(c3cc(Cl)cc(Cl)c3)C3=C2C(=O)CC(C)(C)C3)c2ccccc21` (configuration not stated) was 4.34 µM.
For `Nc1nccc(-c2ccc(-n3cnc4ccccc43)cc2)n1` the value was 1.91 µM.
With `CN1CCN(c2ccc(NC(=O)N3CCc4ccccc43)cc2)CC1`, the IC50 is > 35.9 µM (inactive).
Consider `COc1ccc(OC)c(Cc2cnc3nc(N)nc(N)c3c2C)c1`, for which the IC50 is 7.45 µM.
For `CN(Cc1cnc2nc(N)nc(N)c2n1)c1ccc(C(=O)NC(CCC(=O)O)C(=O)O)cc1` (configuration not stated) the value was > 35.9 µM (inactive); for `C=CCOc1ccc(/C=C2\SC(=S)N(CCC(=O)O)C2=O)cc1`, “inactive”.
Consider `CCOc1ccc(Nc2cc(C)nc(-n3nc(C)cc3C)n2)cc1`, for which the IC50 is > 35.9 µM (inactive).
For `Cc1cccc(CN2CCN(C(=O)CCl)CC2)c1` the value was > 35.9 µM (inactive).
The value for `C/C(=N\NC(=S)Nc1cc(S(=O)(=O)N2CCOCC2)ccc1Cl)c1ccccc1F` was > 35.9 µM (inactive); that for `COc1cccc(CNc2ncnc3ccc(-c4c(C)noc4C)cc23)c1` was “inactive”; that for `Cc1cccc(NC(=O)c2cc(Cl)ccc2[N+](=O)[O-])c1` was 5.61 µM.
As for `COc1cccc(/C=N/Nc2cc(-n3nc(C)cc3-c3ccccc3)ncn2)c1O`, the IC50 is 4.12 µM.
The value for `O=C(N/N=C\c1ccc([N+](=O)[O-])s1)c1cncc(Br)c1` was 5.46 µM; that for `Cc1cc(C(=O)COC(=O)C2=COCCO2)c(C)n1-c1ccccc1` was > 35.9 µM (inactive).
As for `Nc1ccc(Oc2ccccc2-c2ccccc2)cc1`, the IC50 result was “inactive”.
For `CC(=O)c1cccc(-c2csc3ncnc(Sc4nnnn4C)c23)c1`, the IC50 result was “inactive”.
Turning to `Cc1cc2nccc(-c3ccncc3)n2n1`, the IC50 entry was “inactive”.
The value for `CCn1nc(/C=C/c2ccccc2)nc2c(=O)n(C)c(=O)nc1-2` was > 35.9 µM (inactive).
The value for `Cn1cnc([N+](=O)[O-])c1Sc1nc(N)nc2c1ncn2C1OC(CO)C(O)C1O` (configuration not stated) was 6.37 µM; that for `O=C(N/N=C/c1cc(Br)c(Br)s1)c1ccncc1` was 8.67 µM; that for `CCN(c1cccc(C)c1)c1ncnc2nc[nH]c12` was “inactive”.
The value for `CCOc1ccc(/C=C2\SC(=S)N(CCCC(=O)NCCCN3CCOCC3)C2=O)cc1` was “inactive”; that for `COc1cc(C(=O)OCC(=O)Nc2sccc2C(N)=O)cc(OC)c1OC` was > 35.9 µM (inactive); that for `COc1ccc(-n2cnc3c(sc4nccc(N(C)C)c43)c2=O)cc1` was 8.19 µM.
